pIC50: −log10 of the molar value.
Test system: S. Typhimurium GFP reporter counter-screen, fluorescence, 4 h
Assay: S. Typhimurium nonspecific reporter signal inhibition – Salmonella Typhimurium, GFP fluorescence, counter-screen for PhoP regulon inhibitor project, dose response (AID 2401);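 also: S. typhimurium with Mg-insensitive nmpC-GFP reporter grown at 10 µM Mg2+; drop in reporter fluorescence reflects general culture growth inhibition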

`C[C@H]1c2cccc(O)c2C(O)=C2C(=O)C3(O)C(O)=C(C(N)=O)C(=O)[C@@H](N(C)C)[C@@H]3[C@@H](O)[C@@H]21` (some centres undefined) and `C[C@H]1c2cccc(O)c2C(O)=C2C(=O)[C@]3(O)C(O)=C(C(N)=O)C(=O)[C@@H](N(C)C)[C@@H]3[C@@H](O)[C@@H]21` are within 0.2 log units of each other in pIC50: 5.44 for the first, 5.54 for the second.

`CCCCCCCCCCCCCCCC[N+](C)(C)CCN(Cc1ccc(OC)cc1)c1ncccn1` and `CCCCCCCCCCCCCCCC[n+]1cccc2ccccc21` are within 0.2 log units of each other in pIC50: 4.69 for the first, 4.72 for the second.

Compared with `O=C1C=C(N2CCOCC2)c2ccccc2C1=O`, `COC(=O)c1cc(C)nc2c1C(=O)C(=O)C=C2N1CCOCC1` is 0.33 log units lower in pIC50: 4.26 for the first, 3.93 for the second. The first is the more potent here.

Compared with `CN(C)S(=O)(=O)c1cccc(NC(=S)N/N=C/c2cc(Br)ccc2O)c1`, `O=C(CN1CC(c2ccccc2)CC1=O)N/N=C/c1cc(Br)ccc1O` (centres undefined) is 0.63 log units lower in pIC50: 4.49 for the first, 3.86 for the second. The first is the more potent here.

Going from `C#CCOCCOCCOCCNc1nc(N2CCN(C(=O)CCCCCCCCCCNC(=O)[C@H](CCCN=C(N)N)n3cc(C[C@@H](C)CC)nn3)CC2)nc(N2CCN(C(=O)CCCCCCCCCCNC(=O)[C@@H]([C@H](C)CC)n3cc(CCCCCN)nn3)CC2)n1` to `C#CCOCCOCCOCCNc1nc(N2CCN(C(=O)CCCCCCCCCCNC(=O)[C@H]([C@@H](C)CC)n3cc(CCCCN=C(N)N)nn3)CC2)nc(N2CCN(C(=O)CCCCCCCCCCNC(=O)[C@H](CCCN=C(N)N)n3cc(C[C@@H](C)CC)nn3)CC2)n1`, the pIC50 rises from 4.13 to 4.34 (0.21 log units). The second is the more potent here.

First: O=c1[nH]c2ccccc2n2c(=S)[nH]nc12
Second: O=C1c2ccccc2C(=O)c2[nH]c(=O)[nH]c21
The pIC50 of the first is 0.75 log units lower: 4.43 for the first, 5.18 for the second. The second is the more potent here.

Going from `CC[n+]1c(/C=C/N(C)c2ccccc2)n(-c2ccccc2)c2ccc(-c3nc4ccccc4s3)cc21` to `CC[n+]1c(/C=C/C=C/c2ccc(N(C)C)cc2)sc2ccccc21`, the pIC50 falls from 4.71 to 4.14 (0.57 log units).

First: Cc1cc(C(=O)N/N=C/c2cc(Br)cc([N+](=O)[O-])c2O)c2ccccc2n1
Second: Cc1cc(/C=N/n2c(COc3ccccc3)nc3ccccc3c2=O)c(O)c([N+](=O)[O-])c1
The pIC50 of the first is 0.29 log units lower: 3.96 for the first, 4.25 for the second. The second is the more potent here.

First: O=C(N/N=C/c1c[nH]c2ccccc12)c1cc(-c2ccc3ccccc3c2)n[nH]1
Second: O=C(Cc1c[nH]c2ccccc12)N/N=C/c1ccccc1O
The pIC50 of the first is 0.27 log units higher: 4.32 for the first, 4.05 for the second.

Compared with `CCN1/C(=C/C=C/c2sc3ccccc3[n+]2CC)Sc2ccccc21`, `Nc1nc2ccccc2n1CCOc1ccccc1Cl` is 0.34 log units lower in pIC50: 4.48 for the first, 4.14 for the second.

`Fc1ccc(CCNCc2ccc(Cl)c(Cl)c2)cc1` and `CCOc1cc(/C=N/N=C(N)N)ccc1OCc1ccc(Cl)cc1` are within 0.2 log units of each other in pIC50: 4.09 for the first, 4.28 for the second.

Going from `CN(C)C1C(=O)C(C(N)=O)=C(O)C2(O)C(=O)C3=C(O)c4c(O)cccc4C(C)(O)C3C(O)C12` (centres undefined) to `CN(C)C1C(=O)C(C(N)=O)=C(O)C2(O)C(=O)C3=C(O)c4c(O)cccc4C(C)(O)C3CC12` (centres undefined), the pIC50 falls from 6.24 to 6.00 (0.24 log units). The first is the more potent here.

Compared with `Nc1nonc1C(=O)N/N=C/c1cc(Br)ccc1O`, `O=C(N/N=C/c1cc(Cl)ccc1O)c1cccnc1` is 0.45 log units lower in pIC50: 5.04 for the first, 4.59 for the second.

`CCOC(=O)c1ccc(-c2ccc(C3Nc4ccccc4C(=O)N3O)o2)cc1` (centres undefined) and `CC(=O)Oc1ccc(C(=O)[C@H]2[C@H]3C(=O)N(c4ccc5ccccc5c4)C(=O)[C@H]3[C@@H]3C=CC=NN32)cc1` are within 0.2 log units of each other in pIC50: 3.85 for the first, 3.89 for the second.

Going from `c1ccc(C2CNCc3c2ccc2ccccc32)cc1` (centres undefined) to `Oc1ccc(CN2CCc3ccccc3C2)c2cccnc12`, the pIC50 rises from 3.86 to 4.73 (0.87 log units). The second is the more potent here.

First: CCn1cc(C(=O)O)c(=O)c2cc(F)c(N3CCN(C(=S)NC(=O)c4ccccc4)CC3)cc21
Second: CCCOc1ccc(C(=O)NC(=S)N2CCN(c3cc4c(cc3F)c(=O)c(C(=O)O)cn4CC)CC2)cc1
The pIC50 of the first is 0.28 log units higher: 4.53 for the first, 4.25 for the second.

First: O=S1(=O)Nc2c(ccc3cccnc23)-c2ccccc21
Second: Oc1ccc(CN2CCCc3ccccc32)c2cccnc12
The pIC50 of the first is 1.01 log units higher: 5.56 for the first, 4.55 for the second.

Going from `CCOc1ccc(NC(=O)c2ccc(NC(=O)c3cn4c5c(c(N6CCN(C)CC6)c(F)cc5c3=O)OCC4C)cc2)cc1` (centres undefined) to `CCn1cc(C(=O)O)c(=O)c2cc(F)c(N3CCN(C)CC3)cc21`, the pIC50 rises from 5.19 to 5.67 (0.48 log units).

Compared with `O=[N+]([O-])c1cc(CN2CCCC2)c2cccnc2c1O`, `Oc1c(Cl)cc(Cl)c2cccnc12` is 0.59 log units higher in pIC50: 4.39 for the first, 4.98 for the second. The second is the more potent here.

Compared with `Cc1ccc(Nc2cc(C)c3c(O)cccc3n2)cc1C`, `Cc1cc(C(=O)N/N=C/c2ccc(O)c(O)c2O)c(C)n1-c1ccccc1` is 0.52 log units higher in pIC50: 4.12 for the first, 4.64 for the second.

`COc1cc([N+](=O)[O-])cc(/C=N\NC(=O)C2COc3ccccc3O2)c1O` (centres undefined) and `O=C(O)CSc1cc(NS(=O)(=O)c2cccc([N+](=O)[O-])c2)c2ccccc2c1O` are within 0.2 log units of each other in pIC50: 4.07 for the first, 4.08 for the second.

Compared with `CN1CCN(C(c2ccccn2)c2cc(Cl)c3cccnc3c2O)CC1` (centres undefined), `CN1CCN(C(c2ccc(Br)cc2)c2cc(Cl)c3cccnc3c2O)CC1` (centres undefined) is 0.34 log units higher in pIC50: 4.36 for the first, 4.70 for the second.

Compared with `FC(F)(F)c1ccc2c(c1)N(CCCN1CCN(CCCl)CC1)c1ccccc1S2`, `CCN1CCN(C(c2ccc(C(F)(F)F)cc2)c2ccc3cccnc3c2O)CC1` (centres undefined) is 0.44 log units higher in pIC50: 3.96 for the first, 4.40 for the second.

`NC(N)=NN=C1CCCCCCCCCCC1` and `Clc1ccc(-c2c[n+](Cc3ccc(Cl)cc3Cl)c3n2CCCCC3)cc1` are within 0.2 log units of each other in pIC50: 4.11 for the first, 4.01 for the second.

First: CCCCCCCCn1c2c(c(=N)c3ccccc31)CCC2
Second: CCCCCCCCCCOC(=O)Cn1c(COc2cccc(C)c2)[n+](C)c2ccccc21
The pIC50 of the first is 0.30 log units lower: 4.41 for the first, 4.71 for the second.

First: Cc1nn(-c2ccccc2)c(N2CCCC2)c1/C=N/Nc1ccc(S(N)(=O)=O)cc1[N+](=O)[O-]
Second: Nc1ccc2c(c1)C(=O)C(=O)c1ccccc1-2
The pIC50 of the first is 0.91 log units lower: 4.05 for the first, 4.96 for the second.

Compared with `O=C(Nc1ccccc1)Nc1ncc([N+](=O)[O-])s1`, `Cc1[nH]c2ccccc2c1C(=O)COC(=O)c1ccc([N+](=O)[O-])s1` is 0.54 log units lower in pIC50: 4.43 for the first, 3.89 for the second.

`Nc1nc(F)nc2c1ncn2[C@@H]1O[C@H](CO)[C@@H](O)[C@H]1O` and `C=CC1=C(C(=O)O)N2C(=O)[C@@H](NC(=O)/C(=N\O)c3csc(N)n3)[C@H]2SC1` (stereo in doubt) are the same in pIC50: 4.48 for the first, 4.48 for the second.

`Oc1cccc(/C=N/Nc2ccc(Cl)nn2)c1O` and `Nc1c(Cl)ncnc1N/N=C/c1ccccn1` are within 0.2 log units of each other in pIC50: 4.74 for the first, 4.59 for the second.

Compared with `COc1nsnc1NS(=O)(=O)c1ccc(NC(=S)NC(=O)c2cccnc2)cc1`, `O=C(NNC(=O)c1cnccn1)c1ccc(Cl)cc1` is 0.44 log units lower in pIC50: 4.37 for the first, 3.93 for the second. The first is the more potent here.

`CCn1cc(C(=O)O)c(=O)c2cc(F)c(N3CCNCC3)cc21` and `CN1CCN(c2cc3c(cc2F)c(=O)c(C(=O)O)cn3CCF)CC1` are within 0.2 log units of each other in pIC50: 6.06 for the first, 6.03 for the second.

Going from `Cc1scc(C(=O)N/N=C/c2ccc([N+](=O)[O-])o2)c1C` to `Cc1ccc(-c2csc(N=C(N)N)n2)c(C)c1`, the pIC50 rises from 3.94 to 4.24 (0.30 log units). The second is the more potent here.

Compared with `O=C(Nc1nnc(-c2cccs2)o1)c1cccc(Oc2ccccc2)c1`, `N=C(N)SCc1cn(-c2ccccc2)nc1-c1ccc(Br)cc1` is 0.30 log units higher in pIC50: 4.39 for the first, 4.69 for the second.

`CC[C@H]1OC(=O)[C@H](C)[C@@H](O[C@H]2C[C@@](C)(OC)[C@@H](O)[C@H](C)O2)[C@H](C)[C@@H](O[C@@H]2O[C@H](C)C[C@H](N(C)C)[C@H]2O)[C@](C)(O)C[C@@H](C)[C@@H]2N[C@@H](COCCOC)O[C@H]([C@H]2C)[C@]1(C)O` and `COC(=O)C1C(O)C(C)C(O)C(C)/C=C\C=C(/C)C(=O)Nc2c(C)c(OC(C)=O)c3c(c2O)C(=O)C(C)=C2OCOC(=C23)/C(C)=C/C(C)(O)C(O)C(C)C1O` (centres undefined) are within 0.2 log units of each other in pIC50: 4.60 for the first, 4.65 for the second.

Going from `CCNC(=S)NNC(=O)c1ccccn1` to `C/C(=N\Nc1nc2ccccc2[nH]1)c1ccccn1`, the pIC50 rises from 4.44 to 4.65 (0.21 log units). The second is the more potent here.

Compared with `OC(CNCCc1ccccc1)COc1ccc(OCC(O)CNCCc2ccccc2)cc1` (centres undefined), `CCCCCCCCCCOC(=O)Cn1c(COc2ccccc2)[n+](C)c2ccccc21` is 0.52 log units higher in pIC50: 4.20 for the first, 4.72 for the second. The second is the more potent here.

First: CCCCCCCOC(=O)C[N+](C)(C)CCOC1CC2CCC1(C)C2(C)C (centres undefined)
Second: CCCCCCCSc1cc(OC)c(CCNC)cc1OC
The pIC50 of the first is 0.29 log units higher: 4.70 for the first, 4.41 for the second.

`CCCCCCCNC(=O)C1(CC2CC(c3cccc(Br)c3)=NO2)CCNCC1` (centres undefined) and `CCCCCCNC(=O)c1cn(CC)c2cc(N3CCN(C)CC3)c(F)cc2c1=O` are within 0.2 log units of each other in pIC50: 4.42 for the first, 4.41 for the second.

`CCc1ccc(S(=O)(=O)/N=C2/C=C(Sc3ncn[nH]3)C(=O)c3ccccc32)cc1` and `CCc1ccc(NC(=O)C[n+]2cc(-c3ccc(C)cc3)n3c2CCC3)cc1` are within 0.2 log units of each other in pIC50: 4.11 for the first, 4.07 for the second.

First: CCCOc1ccc(Br)cc1CSC(=N)N
Second: Cc1c2ccncc2c(C)c2c1[nH]c1ccccc12
The pIC50 of the first is 0.84 log units lower: 3.87 for the first, 4.71 for the second.

Going from `CCCCCCCCCCCCCCCCn1cc[n+](CC(C)=O)c1` to `CCC(C)N1CCC2(CC1)N=c1c(c3c4c5c(C)c(O)c3c(O)c1=NC(=O)C(C)=CC=C[C@H](C)[C@H](O)[C@@H](C)[C@@H](O)[C@@H](C)[C@H](OC(C)=O)[C@H](C)[C@@H](OC)C=CO[C@@](C)(O5)C4=O)N2` (some centres undefined), the pIC50 rises from 4.47 to 5.64 (1.17 log units). The second is the more potent here.

`OC(c1cc(C(F)(F)F)nc2c(Cl)cc(Cl)cc12)C1CCCCN1` (centres undefined) and `Oc1c(C(c2ccccn2)N2CCOCC2)ccc2cccnc12` (centres undefined) are within 0.2 log units of each other in pIC50: 4.09 for the first, 4.05 for the second.

— PubChem BioAssay AID2401 (Southern Research Specialized Biocontainment Screening …, 2010)
